The results in this text go back to ChEMBL document CHEMBL5291721, “A preclinical secondary pharmacology resource illuminates target-adverse drug reaction associations of marketed drugs” (Nat Commun, 2023).

Assay [1] concerns the target Gamma-aminobutyric acid receptor subunit alpha-1 (Rattus norvegicus, UniProt P62813).
The target of another assay is Histamine H2 receptor (Homo sapiens, UniProt P25021). It counts as functional, cell-based.
The next assay has as its target T1, Progesterone receptor (Homo sapiens, UniProt P06401).
T1 sequence (P06401 whole entry): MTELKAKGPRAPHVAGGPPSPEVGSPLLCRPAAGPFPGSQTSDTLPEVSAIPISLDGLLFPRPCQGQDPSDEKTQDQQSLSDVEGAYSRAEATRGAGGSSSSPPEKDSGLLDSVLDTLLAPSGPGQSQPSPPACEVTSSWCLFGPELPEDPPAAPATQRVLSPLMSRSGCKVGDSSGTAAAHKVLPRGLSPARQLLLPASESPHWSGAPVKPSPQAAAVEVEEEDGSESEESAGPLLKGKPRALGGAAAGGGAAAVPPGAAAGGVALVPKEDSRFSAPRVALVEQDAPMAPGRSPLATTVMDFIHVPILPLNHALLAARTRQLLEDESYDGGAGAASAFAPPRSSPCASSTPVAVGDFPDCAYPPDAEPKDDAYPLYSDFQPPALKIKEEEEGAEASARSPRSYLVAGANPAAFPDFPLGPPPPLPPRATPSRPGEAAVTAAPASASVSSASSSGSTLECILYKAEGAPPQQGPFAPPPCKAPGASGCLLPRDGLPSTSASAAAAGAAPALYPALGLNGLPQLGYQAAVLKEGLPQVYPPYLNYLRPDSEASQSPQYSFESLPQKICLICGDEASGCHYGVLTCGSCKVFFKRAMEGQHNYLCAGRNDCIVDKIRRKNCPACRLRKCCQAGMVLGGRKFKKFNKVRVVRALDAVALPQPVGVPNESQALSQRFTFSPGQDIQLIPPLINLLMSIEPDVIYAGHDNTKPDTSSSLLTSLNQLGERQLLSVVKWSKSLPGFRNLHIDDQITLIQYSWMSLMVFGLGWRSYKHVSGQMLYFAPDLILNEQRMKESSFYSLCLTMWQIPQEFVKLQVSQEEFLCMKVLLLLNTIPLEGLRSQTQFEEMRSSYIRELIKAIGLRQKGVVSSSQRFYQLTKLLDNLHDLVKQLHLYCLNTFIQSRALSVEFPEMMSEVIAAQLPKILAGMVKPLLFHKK
It counts as functional.

Assay [2] deals with T2, Mu-type opioid receptor (Homo sapiens, UniProt P35372).
T2 sequence (P35372 whole entry): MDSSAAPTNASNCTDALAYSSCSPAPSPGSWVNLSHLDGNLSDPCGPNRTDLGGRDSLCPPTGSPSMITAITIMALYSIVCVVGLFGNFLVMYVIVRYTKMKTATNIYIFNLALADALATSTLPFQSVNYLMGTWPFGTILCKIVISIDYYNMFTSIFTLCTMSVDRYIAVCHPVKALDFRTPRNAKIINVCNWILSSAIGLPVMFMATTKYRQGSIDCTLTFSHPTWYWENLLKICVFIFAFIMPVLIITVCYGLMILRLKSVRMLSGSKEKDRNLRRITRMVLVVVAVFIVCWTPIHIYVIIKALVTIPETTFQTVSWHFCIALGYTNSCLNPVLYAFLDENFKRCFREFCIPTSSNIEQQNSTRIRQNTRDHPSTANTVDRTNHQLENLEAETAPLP
For assay [3], the target named is T3, Alpha-1A adrenergic receptor (Homo sapiens, UniProt P35348).
T3 sequence (P35348 whole entry): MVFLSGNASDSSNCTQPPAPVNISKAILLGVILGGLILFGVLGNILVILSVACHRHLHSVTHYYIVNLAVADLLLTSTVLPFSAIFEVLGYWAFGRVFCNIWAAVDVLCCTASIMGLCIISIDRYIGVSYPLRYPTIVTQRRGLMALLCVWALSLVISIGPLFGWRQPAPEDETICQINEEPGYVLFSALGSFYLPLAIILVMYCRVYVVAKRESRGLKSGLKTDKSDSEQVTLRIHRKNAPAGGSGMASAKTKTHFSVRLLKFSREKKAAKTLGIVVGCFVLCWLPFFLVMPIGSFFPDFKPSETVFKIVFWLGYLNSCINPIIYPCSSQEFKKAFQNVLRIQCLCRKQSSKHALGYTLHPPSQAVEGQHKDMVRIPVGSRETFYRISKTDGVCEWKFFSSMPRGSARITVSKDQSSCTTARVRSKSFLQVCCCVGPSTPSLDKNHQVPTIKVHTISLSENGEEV
The assay is classed as functional, cell-based.

Assay [4] addresses T3, Alpha-1A adrenergic receptor. The assay is classed as functional, cell-based. This is another data set of the same source.
Assay [5] addresses T4, Alpha-2B adrenergic receptor (Homo sapiens, UniProt P18089).
T4 sequence (P18089 whole entry): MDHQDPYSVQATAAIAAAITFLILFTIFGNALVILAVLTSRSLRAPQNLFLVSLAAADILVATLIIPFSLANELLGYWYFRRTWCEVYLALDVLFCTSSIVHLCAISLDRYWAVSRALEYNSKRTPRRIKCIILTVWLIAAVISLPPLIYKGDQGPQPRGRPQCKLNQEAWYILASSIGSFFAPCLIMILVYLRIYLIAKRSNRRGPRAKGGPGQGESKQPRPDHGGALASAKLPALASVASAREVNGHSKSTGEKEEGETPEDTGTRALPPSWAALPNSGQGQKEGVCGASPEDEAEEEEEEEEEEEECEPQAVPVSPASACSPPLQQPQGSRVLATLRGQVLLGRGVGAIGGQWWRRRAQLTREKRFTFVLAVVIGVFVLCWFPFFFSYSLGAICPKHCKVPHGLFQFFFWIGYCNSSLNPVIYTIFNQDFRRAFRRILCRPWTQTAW

In assay [6] the target is Muscarinic acetylcholine receptor M3 (Homo sapiens, UniProt P20309).
Sequence of Muscarinic acetylcholine receptor M3 (P20309 whole entry): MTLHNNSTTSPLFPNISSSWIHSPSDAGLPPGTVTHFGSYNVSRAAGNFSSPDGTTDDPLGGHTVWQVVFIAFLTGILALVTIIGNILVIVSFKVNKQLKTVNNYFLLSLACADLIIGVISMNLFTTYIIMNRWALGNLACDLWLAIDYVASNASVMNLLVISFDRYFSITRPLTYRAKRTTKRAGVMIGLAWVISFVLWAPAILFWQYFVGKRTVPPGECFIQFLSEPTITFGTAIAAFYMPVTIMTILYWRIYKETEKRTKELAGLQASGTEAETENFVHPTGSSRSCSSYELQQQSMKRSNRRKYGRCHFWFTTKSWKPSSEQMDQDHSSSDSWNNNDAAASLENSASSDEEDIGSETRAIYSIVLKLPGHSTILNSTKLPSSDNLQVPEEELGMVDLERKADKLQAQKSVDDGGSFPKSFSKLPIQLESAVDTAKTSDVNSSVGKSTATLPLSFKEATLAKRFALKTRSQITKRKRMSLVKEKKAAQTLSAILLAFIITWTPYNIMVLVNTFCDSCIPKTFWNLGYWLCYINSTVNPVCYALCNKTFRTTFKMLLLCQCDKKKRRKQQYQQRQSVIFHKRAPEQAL
Assay [7] addresses T2, Mu-type opioid receptor. This is another data set of the same source.
A further assay concerns the target T5, Thromboxane A2 receptor (Homo sapiens, UniProt P21731).
T5 sequence (P21731 whole entry): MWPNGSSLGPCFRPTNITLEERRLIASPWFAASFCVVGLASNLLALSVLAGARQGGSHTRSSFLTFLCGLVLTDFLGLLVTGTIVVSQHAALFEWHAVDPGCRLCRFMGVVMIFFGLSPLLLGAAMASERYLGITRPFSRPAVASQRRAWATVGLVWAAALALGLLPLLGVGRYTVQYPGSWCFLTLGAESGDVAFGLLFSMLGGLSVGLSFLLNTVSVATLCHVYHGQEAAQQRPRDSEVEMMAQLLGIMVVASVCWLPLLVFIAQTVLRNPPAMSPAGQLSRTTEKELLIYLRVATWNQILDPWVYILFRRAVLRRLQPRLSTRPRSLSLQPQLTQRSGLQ
It counts as functional, cell-based.

Another assay has as its target Vasopressin V2 receptor (Homo sapiens, UniProt P30518).

What is called AC50 is the midpoint of the concentration-response curve, whichever way the signal moves. A higher AC50 goes with weaker potency.
Further: assay procedure not described here.

Sequence of Vasopressin V2 receptor (P30518 whole entry): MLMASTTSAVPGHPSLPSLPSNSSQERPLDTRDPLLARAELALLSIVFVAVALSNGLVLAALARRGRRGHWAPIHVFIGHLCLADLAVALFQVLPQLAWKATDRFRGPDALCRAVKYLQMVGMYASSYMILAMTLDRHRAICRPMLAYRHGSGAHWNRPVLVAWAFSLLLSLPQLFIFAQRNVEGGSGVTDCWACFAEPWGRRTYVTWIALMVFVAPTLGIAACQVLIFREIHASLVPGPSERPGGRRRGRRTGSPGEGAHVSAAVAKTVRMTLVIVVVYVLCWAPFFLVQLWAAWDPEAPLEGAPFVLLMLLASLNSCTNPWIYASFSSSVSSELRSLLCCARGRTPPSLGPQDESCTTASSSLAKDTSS
Sequence of Gamma-aminobutyric acid receptor subunit alpha-1 (P62813 whole entry): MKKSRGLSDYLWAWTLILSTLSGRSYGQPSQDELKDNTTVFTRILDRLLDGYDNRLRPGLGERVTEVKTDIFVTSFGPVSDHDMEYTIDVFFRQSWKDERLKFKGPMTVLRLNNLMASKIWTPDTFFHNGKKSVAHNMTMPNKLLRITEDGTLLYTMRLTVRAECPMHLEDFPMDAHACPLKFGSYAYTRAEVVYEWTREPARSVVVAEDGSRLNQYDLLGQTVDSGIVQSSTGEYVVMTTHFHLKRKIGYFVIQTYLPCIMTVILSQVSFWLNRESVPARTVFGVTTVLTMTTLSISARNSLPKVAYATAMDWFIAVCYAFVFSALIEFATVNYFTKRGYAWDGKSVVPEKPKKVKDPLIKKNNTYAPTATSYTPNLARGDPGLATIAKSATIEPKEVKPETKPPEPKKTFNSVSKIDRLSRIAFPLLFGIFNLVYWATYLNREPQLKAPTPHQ
Sequence of Histamine H2 receptor (P25021 whole entry): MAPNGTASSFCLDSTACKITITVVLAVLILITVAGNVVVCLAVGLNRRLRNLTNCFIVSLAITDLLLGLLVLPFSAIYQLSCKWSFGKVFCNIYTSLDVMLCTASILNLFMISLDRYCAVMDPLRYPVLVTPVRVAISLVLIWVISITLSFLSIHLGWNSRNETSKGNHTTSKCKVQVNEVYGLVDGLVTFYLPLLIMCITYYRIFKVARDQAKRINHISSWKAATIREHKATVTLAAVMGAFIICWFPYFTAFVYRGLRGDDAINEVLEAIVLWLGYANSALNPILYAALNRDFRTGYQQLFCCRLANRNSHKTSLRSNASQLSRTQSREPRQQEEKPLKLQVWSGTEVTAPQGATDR

Turning to `c1ccc([C@H]2CN3CCSC3=N2)cc1` [LEVAMISOLE], the half-maximal activity concentration (AC50) (in assay [1]; at Histamine H2 receptor; on Progesterone receptor; at Mu-type opioid receptor [2]; in [3]) was more than 30 µM throughout.

As for `O=C(OCC(O)CO)c1ccccc1Nc1ccnc2cc(Cl)ccc12` (stereo not drawn) [GLAFENINE], the half-maximal activity concentration (AC50) in [4] was more than 30 µM; in assay [5], more than 30 µM; in assay [6], more than 30 µM; at Mu-type opioid receptor [7], 28.7 µM; on Progesterone receptor, more than 30 µM; at Thromboxane A2 receptor it was more than 30 µM. The half-maximal activity concentration (AC50) (at Mu-type opioid receptor [2]; in assay [3]) was more than 30 µM in each case.

With `CC(=O)NCCCS(=O)(=O)O` [ACAMPROSATE], the AC50 (in assay [5]; on Vasopressin V2 receptor; in assay [6]; in assay [1]; on Histamine H2 receptor; on Progesterone receptor) was more than 30 µM in each case. For the same compound, the AC50 in assay [3] is more than 30 µM.

With `CC[C@H]1[C@@H](O)[C@@H]2[C@H](CC[C@]3(C)[C@@H]([C@H](C)CCC(=O)O)CC[C@@H]23)[C@@]2(C)CC[C@@H](O)C[C@@H]12` [OBETICHOLIC ACID], the half-maximal activity concentration (AC50) (in assay [4]; in assay [5]; on Vasopressin V2 receptor; in assay [6]; in assay [1]; at Histamine H2 receptor) was more than 30 µM throughout. In addition, the concentration at half-maximal activity (AC50) on Mu-type opioid receptor [7] was more than 30 µM; on Progesterone receptor it was more than 30 µM; on Thromboxane A2 receptor, more than 30 µM; in assay [3], 6.3 µM.

In the case of `CNC(=O)c1ccccc1Sc1ccc2c(/C=C/c3ccccn3)n[nH]c2c1` [AXITINIB], the AC50 (in [5]; in assay [6]; on Progesterone receptor; at Mu-type opioid receptor [2]; in assay [3]) was more than 30 µM each time.

As for `Nc1nc(NC2CC2)c2ncn([C@H]3C=C[C@@H](CO)C3)c2n1` [ABACAVIR], the concentration at half-maximal activity (AC50) (in assay [5]; on Vasopressin V2 receptor; in [6]; in [1]; at Histamine H2 receptor; at Progesterone receptor) was more than 30 µM each time. Moreover, the concentration at half-maximal activity (AC50) in assay [3] was more than 30 µM.

With `CNC1Cc2ccccc2N(C)c2ccccc21` (stereo not drawn) [METAPRAMINE], the AC50 in [5] was 29 µM; in assay [6], more than 30 µM; at Progesterone receptor, more than 30 µM; on Mu-type opioid receptor [2], more than 30 µM; in assay [3], 3.4 µM.

As to `C1CCC(C(CC2CCCCN2)C2CCCCC2)CC1` (stereo not drawn) [PERHEXILINE], the concentration at half-maximal activity (AC50) on Progesterone receptor is more than 30 µM; at Mu-type opioid receptor [2] it was 16 µM; in assay [3] it was more than 10 µM.

For `O=C(Cc1ccc(-c2ccccc2)cc1)Nc1ccccn1` [DIFENPIRAMIDE], the AC50 (in assay [4]; in assay [5]; in assay [6]; in assay [1]; on Histamine H2 receptor; on Mu-type opioid receptor [7]) was more than 30 µM in each case. The AC50 (at Thromboxane A2 receptor; in [3]) was more than 30 µM throughout.

For `CN(C)CCC=C1c2ccccc2C(C)(C)c2ccccc21`, the AC50 in [5] is 11 µM; in assay [6], 0.38 µM; at Progesterone receptor, more than 30 µM; on Mu-type opioid receptor [2] it was 24 µM; in assay [3] it was 0.63 µM.

For the compound `COCCCN1CCC(NC(=O)c2cc(Cl)c(N)c3c2OCC3)CC1` [PRUCALOPRIDE], the AC50 (in [4]; in assay [5]; in [6]; at Mu-type opioid receptor [7]; on Progesterone receptor; at Thromboxane A2 receptor) was more than 30 µM each time. The values for the AC50 (at Mu-type opioid receptor [2]; in assay [3]) were more than 30 µM and 15 µM, respectively.

In the case of `COc1ccc(CC(C)(C)NC[C@H](O)c2cc(O)cc3c2OCC(=O)N3)cc1` [OLODATEROL], the AC50 was more than 30 µM in assay [5]; more than 30 µM in assay [6]; more than 30 µM on Progesterone receptor; more than 30 µM on Mu-type opioid receptor [2]; 0.055 µM in assay [3].

For the compound `CCCCN1C[C@H](O)[C@@H](O)[C@H](O)[C@H]1CO`, the AC50 (in [5]; at Vasopressin V2 receptor; in [6]; in assay [1]; at Histamine H2 receptor; on Progesterone receptor) was more than 30 µM in each case. Also, the concentration at half-maximal activity (AC50) in [3] was more than 30 µM.

In the case of `CC(=O)Nc1ccc(O)cc1` [ACETAMINOPHEN], the half-maximal activity concentration (AC50) (in [4]; at Mu-type opioid receptor [7]; on Progesterone receptor; at Thromboxane A2 receptor; on Mu-type opioid receptor [2]; in [3]) was more than 30 µM each time.

`C[C@H]1CNCCc2ccc(Cl)cc21` [LORCASERIN]: the concentration at half-maximal activity (AC50) in assay [5] was 5.7 µM; in [6], more than 30 µM; at Progesterone receptor it was more than 30 µM; at Mu-type opioid receptor [2], more than 30 µM; in assay [3], more than 30 µM.

As to `N[C@@H]1[C@H]2CN(c3nc4c(cc3F)c(=O)c(C(=O)O)cn4-c3ccc(F)cc3F)C[C@@H]12` [TROVAFLOXACIN], the AC50 (at Progesterone receptor; at Mu-type opioid receptor [2]; in assay [3]) was more than 30 µM each time.

Consider `C=CCc1ccccc1OCC(O)CNC(C)C` (stereo not drawn) [ALPRENOLOL], for which the half-maximal activity concentration (AC50) in assay [4] is more than 0.3 µM; in [5], more than 30 µM; at Vasopressin V2 receptor, more than 30 µM; in assay [6], more than 30 µM; in [1], more than 30 µM; on Histamine H2 receptor, more than 30 µM. The concentration at half-maximal activity (AC50) was more than 0.3 µM on Mu-type opioid receptor [7], more than 30 µM on Progesterone receptor, more than 0.3 µM on Thromboxane A2 receptor and 7.53 µM in assay [3].

Turning to `COc1ccccc1OCC(O)CN1CCN(CC(=O)Nc2c(C)cccc2C)CC1` (stereo not drawn) [RANOLAZINE], the AC50 was 17 µM in assay [5]; more than 30 µM on Vasopressin V2 receptor; more than 30 µM in [6]; more than 30 µM in assay [1]; more than 30 µM on Histamine H2 receptor; more than 30 µM on Progesterone receptor. In [3], the half-maximal activity concentration (AC50) was 1.7 µM.

`c1cnc(N2CCN(Cc3ccc4c(c3)OCO4)CC2)nc1` [PIRIBEDIL]: the AC50 in [6] was more than 30 µM; at Progesterone receptor, more than 30 µM; on Mu-type opioid receptor [2], more than 30 µM; in assay [3] it was 23 µM.
